From the supplement of paper PMC10331698
± gives the standard deviation of the averaged measurements.

Assays:
Assay in all cases: level (log10 ratio to DMSO vehicle control); higher = higher biomarker level / cell amount than vehicle control
[1] = compound: CN(Cc1cnc2nc(N)nc(N)c2n1)c1ccc(C(=O)N[C@@H](CCC(=O)O)C(=O)O)cc1 [Methotrexate]; conditions: in DMSO
Procedure: (§1)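 BioMAP Diversity Plus panel of 12 human primary cell co-culture systems (3C, 4H, LPS, SAg, BT, BF4T, BE3C, CASM3C, HDF3CGF, KF3CT, MyoF, Mphg). Compounds were added 1 h before stimulation and left for 24 h (MyoF 48 h; BT 72 h for soluble read-outs or 6 d for IgG). Biomarkers were read by ELISA, cytotoxicity by SRB, PBMC viability and proliferation by Alamar Blue. Each well value was divided by the mean of 8 DMSO control wells on the same plate and log10 transformed; duplicate blinded samples were tested at 4 concentrations.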

[2] = compound: FC(F)(F)COC(OCC(F)(F)F)OCC(F)(F)F [tris(Trifluoroethoxy)methane]; conditions: in DMSO
Procedure: as §1

[3] = compound: O=C(O)C(F)(F)C(F)(F)C(=O)O [Tetrafluorosuccinic acid]; conditions: in DMSO
Procedure: as §1

[4] = compound: O=C(O)C(F)(F)C(F)(F)C(F)(F)C(F)(F)C(F)(F)C(F)(F)C(F)(F)F [Perfluorooctanoic acid]; conditions: in DMSO
Procedure: as §1

[5] = compound: OCC(F)(F)C(F)(F)C(F)(F)C(F)(F)C(F)(F)C(F)(F)C(F)(F)C(F)(F)CO [1H,1H,10H,10H-Perfluorodecane-1,10-diol]; conditions: in DMSO
Procedure: as §1

[6] = compound: OCCC(F)(F)C(F)(F)C(F)(F)C(F)(F)C(F)(F)C(F)(F)C(F)(F)C(F)(F)F [8:2 Fluorotelomer alcohol]; conditions: 6700 nM; in DMSO
Procedure: as §1

[7] = compound: OCCCCC(F)(F)C(F)(F)C(F)(F)C(F)(F)F [4:4 Fluorotelomer alcohol]; conditions: in DMSO
Procedure: as §1

Row | Test System | level (log10) ([1]; 1500 nM) | level (log10) ([1]; 4400 nM) | level (log10) ([1]; 13000 nM) | level (log10) ([1]; 40000 nM) | level (log10) ([2]; 6700 nM) | level (log10) ([2]; 20000 nM) | level (log10) ([2]; 60000 nM) | level (log10) ([3]; 6700 nM) | level (log10) ([3]; 20000 nM) | level (log10) ([3]; 60000 nM) | level (log10) ([4]; 6700 nM) | level (log10) ([4]; 20000 nM) | level (log10) ([4]; 60000 nM) | level (log10) ([5]; 6700 nM) | level (log10) ([5]; 20000 nM) | level (log10) ([5]; 60000 nM) | level (log10) [6] | level (log10) ([7]; 6700 nM) | level (log10) ([7]; 20000 nM) | level (log10) ([7]; 60000 nM)
1 | HDF3CGF:Collagen III | 0.0115 ± 0.061 | -0.002 ± 0.072 | 0.004 ± 0.013 | -0.026 ± 0.086 | -0.013 ± 0.0071 | -0.0205 ± 0.0092 | 0.0075 ± 0.016 | -0.058 ± 0.057 | -0.0805 ± 0.059 | -0.118 ± 0.02 | 0.012 ± 0.011 | 0.0255 ± 0.0078 | 0.0155 ± 0.053 | -0.035 ± 0.0071 | -0.094 ± 0.045 | -0.438 | -0.0025 ± 0.032 | -0.0165 ± 0.029 | -0.0105 ± 0.019 | 0.011 ± 0.05
2 | MyoF:TIMP-1 | -0.0025 ± 0.0021 | -0.025 ± 0.027 | -0.012 ± 0.033 | -0.0285 ± 0.084 | -0.0325 ± 0.032 | -0.05 ± 0.055 | -0.076 ± 0.0028 | -0.0045 ± 0.022 | -0.0215 ± 0.04 | -0.026 ± 0.069 | -0.0245 ± 0.005 | 0.0185 ± 0.0078 | 0.089 ± 0.013 | 0.03 ± 0.031 | 0.078 ± 0.04 | 0.052 | -0.0435 ± 0.025 | 0.021 ± 0.062 | 0.0235 ± 0.067 | 0.0315 ± 0.087
3 | CASM3C:HLA-DR | 0.0795 ± 0.0021 | -0.004 ± 0.068 | -0.079 ± 0.013 | 0.0375 ± 0.015 | -0.0115 ± 0.0064 | -0.007 | -0.0135 ± 0.023 | -0.005 ± 0.0099 | -0.0145 ± 0.013 | 0.0015 ± 0.0064 | 0.0045 ± 0.015 | -0.0045 ± 0.0021 | -0.0045 ± 0.043 | -0.0185 ± 0.0078 | -0.0275 ± 0.0064 | -0.065 | -0.022 ± 0.018 | -0.0045 ± 0.019 | -0.015 ± 0.0042 | 0.019 ± 0.027
4 | lMphg:SRB | 0.0015 ± 0.0064 | -0.0005 ± 0.00071 | -0.002 ± 0.0085 | 0.0055 ± 0.00071 | -0.0035 ± 0.011 | -0.0025 ± 0.0021 | 0.0045 ± 0.023 | -0.008 ± 0.0014 | 0.001 | 0.001 ± 0.013 | -0.008 ± 0.0071 | -0.0005 ± 0.005 | 0.011 ± 0.017 | -0.0025 ± 0.013 | -0.014 ± 0.0057 | -1.09 | -0.02 | -0.015 ± 0.0028 | -0.0055 ± 0.0035 | 0.004 ± 0.033
5 | 3C:CCL2/MCP-1 | 0.0505 ± 0.0064 | -0.013 ± 0.027 | 0.0065 ± 0.0078 | 0.028 ± 0.028 | -0.0065 ± 0.019 | -0.0115 ± 0.022 | 0.021 ± 0.048 | -0.0065 ± 0.016 | -0.006 ± 0.0028 | 0.0005 ± 0.0064 | 0.0055 ± 0.016 | 0.008 ± 0.0071 | 0.04 ± 0.034 | -0.0015 ± 0.005 | 0.0055 ± 0.00071 | 0.018 | -0.0025 ± 0.0021 | 0.004 ± 0.014 | -0.0205 ± 0.011 | -0.0105 ± 0.037
6 | CASM3C:CXCL9/MIG | 0.0375 ± 0.021 | 0.0225 ± 0.0092 | 0.0165 ± 0.026 | 0.0615 ± 0.035 | 0.0015 ± 0.012 | -0.0115 ± 0.0064 | -0.0145 ± 0.005 | -0.006 ± 0.0099 | -0.0135 ± 0.0021 | 0.014 ± 0.0085 | 0.016 ± 0.0085 | -0.0065 ± 0.04 | 0.042 ± 0.076 | -0.001 | -0.0035 ± 0.005 | -0.039 | 0.0025 ± 0.026 | 0.0115 ± 0.0035 | 0.0065 ± 0.026 | 0.0345 ± 0.059
7 | HDF3CGF:Collagen I | -0.0495 ± 0.079 | -0.077 ± 0.083 | -0.068 ± 0.095 | -0.0415 ± 0.035 | 0.0165 ± 0.061 | 0.0025 ± 0.042 | 0.0345 ± 0.03 | -0.0515 ± 0.025 | -0.0235 ± 0.018 | -0.0305 ± 0.029 | -0.025 ± 0.0028 | 0.0005 ± 0.016 | 0.0395 ± 0.054 | 0.029 ± 0.0014 | -0.01 ± 0.025 | 0.035 | -0.022 ± 0.0042 | -0.0175 ± 0.067 | -0.0175 ± 0.071 | 0.031 ± 0.13
8 | lMphg:CD69 | -0.03 ± 0.021 | -0.0135 ± 0.036 | -0.0325 ± 0.057 | -0.034 ± 0.054 | 0.0225 ± 0.05 | 0.005 ± 0.035 | 0.0095 ± 0.042 | -0.048 ± 0.021 | 0.0125 ± 0.047 | 0.059 ± 0.073 | -0.048 ± 0.028 | -0.0655 ± 0.05 | -0.033 ± 0.11 | -0.003 ± 0.0099 | -0.019 ± 0.033 | -0.348 | -0.086 ± 0.035 | -0.0475 ± 0.04 | -0.063 ± 0.018 | -0.014 ± 0.045
9 | CASM3C:CD141/Thrombomodulin | 0.0595 ± 0.005 | -0.008 ± 0.093 | 0.0155 ± 0.098 | 0.044 ± 0.021 | -0.0075 ± 0.0092 | -0.006 ± 0.025 | -0.0125 ± 0.019 | -0.0015 ± 0.012 | 0.013 ± 0.023 | -0.0265 ± 0.025 | 0.0125 ± 0.0092 | 0.007 ± 0.016 | -0.0115 ± 0.0064 | -0.0225 ± 0.028 | -0.0335 ± 0.04 | 0.026 | 0.0135 ± 0.0021 | -0.0065 ± 0.012 | -0.0065 ± 0.0078 | 0.0145 ± 0.032
10 | 3C:CD142/Tissue Factor | -0.0325 ± 0.042 | -0.0135 ± 0.033 | -0.0175 ± 0.081 | -0.005 ± 0.061 | -0.0195 ± 0.07 | -0.009 ± 0.052 | -0.028 | 0.001 ± 0.042 | 0.0025 ± 0.0064 | 0.006 ± 0.023 | 0.0395 ± 0.057 | 0.0135 ± 0.071 | 0.049 ± 0.011 | -0.0585 ± 0.028 | -0.0685 ± 0.032 | -0.107 | 0.0035 ± 0.14 | -0.0215 ± 0.025 | -0.018 ± 0.042 | 0.0155 ± 0.0092
11 | lMphg:CXCL8/IL-8 | 0.0075 ± 0.046 | -0.017 | 0.003 ± 0.023 | 0.044 ± 0.0057 | -0.0095 ± 0.016 | -0.018 ± 0.0042 | -0.007 ± 0.044 | -0.0205 ± 0.0064 | -0.025 ± 0.021 | -0.0175 ± 0.023 | 0.009 ± 0.021 | 0.073 ± 0.048 | 0.175 ± 0.054 | 0.03 ± 0.035 | 0.0055 ± 0.018 | -0.19 | 0.076 ± 0.024 | -0.04 ± 0.035 | -0.0355 ± 0.029 | 0.022 ± 0.021
12 | BE3C:MMP-9 | 0.014 ± 0.021 | -0.0025 ± 0.011 | 0.0045 ± 0.079 | 0.0085 ± 0.015 | -0.005 ± 0.0028 | -0.004 ± 0.0014 | 0.0045 ± 0.019 | -0.014 ± 0.027 | -0.0035 ± 0.011 | -0.005 ± 0.0028 | -0.0185 ± 0.012 | 0.015 ± 0.0028 | 0.079 ± 0.047 | 0 ± 0.0071 | -0.041 ± 0.0042 | -0.14 | -0.028 ± 0.02 | 0.0035 ± 0.032 | 0.014 ± 0.028 | 0.031 ± 0.045
13 | 3C:CD62E/E-Selectin | 0.007 ± 0.0057 | -0.0145 ± 0.0035 | -0.004 ± 0.02 | 0.01 ± 0.011 | -0.022 ± 0.0014 | -0.0185 ± 0.0078 | -0.0245 ± 0.0035 | -0.0015 ± 0.016 | -0.0155 ± 0.0064 | -0.01 ± 0.0099 | 0.001 ± 0.0042 | 0.0195 ± 0.0035 | 0.0725 ± 0.0078 | -0.0065 ± 0.005 | -0.0275 ± 0.0092 | -0.082 | -0.016 ± 0.0099 | -0.004 ± 0.0014 | -0.0055 ± 0.032 | 0.0105 ± 0.012
14 | BE3C:PAI-I | -0.0595 ± 0.015 | -0.031 ± 0.045 | -0.051 ± 0.048 | -0.0665 ± 0.084 | -0.0015 ± 0.0035 | -0.0005 ± 0.00071 | -0.0045 ± 0.00071 | -0.011 ± 0.0071 | 0.002 ± 0.018 | -0.001 ± 0.023 | 0.001 ± 0.0042 | 0.0395 ± 0.013 | 0.041 ± 0.0028 | 0.041 ± 0.0085 | -0.0655 ± 0.0035 | -0.192 | -0.055 ± 0.021 | -0.026 ± 0.02 | -0.002 ± 0.031 | 0.011
